Measurements: publication PMC9655717, “New Molecules of Diterpene Origin with Inhibitory Properties toward α-Glucosidase” (International Journal of Molecular Sciences, 2022)
In brackets after ≈: the same amount, converted by molar mass. Like-named read-outs stand apart in the source and are kept apart here.

Columns and labels:
[1] = MTT cytotoxicity assay; conditions: human
Method: The cytotoxic activity of compounds was evaluated against four cancer cell lines KB, Hep-G2, Lu-1 and MCF-7, using colorimetric MTT assay. […]
MTT assay was used to determine the cytotoxic activity of compounds with human cancer cell lines acquired from the American Type Culture Collection (ATCC): epidermoid carcinoma (KB, ATCC number CCL-17), hepatocellular carcinoma (HepG2, ATCC number HB-8065), lung adenocarcinoma LU-1 (ATCC number HTB - 57TM), breast adenocarcinoma MCF-7 (ATCC number HTB - 22TM. Cells were cultured in medium DMEM supplemented with 10% Fetal bovine serum (FBS), 1% Penicillin and Streptomycin and 1% L-glutamine, under a humidified atmosphere of 5% CO2 at 37°C.
Compounds were dissolved in DMSO at 40 mg/mL and a series of dilutions for each compound was prepared to final concentrations of 256, 64, 16, 4 and 1 μg/mL. Cells were separated with trypsin and seeded in each well with 3 x10^4 cells per ml and were treated with sample different concentrations on 96-well plates. Untreated cells represented the controls. After 72h of treatment, an MTT solution (10 μl, 5 mg/mL) of phosphate buffer was added to each well for 4 h until intracellular purple formazan crystals are visible. Remove MTT and add DMSO solution (100 μL). The optical density of the solution was determined by Epoch™ Microplate Spectrophotometer at 540 nm. The inhibition ratio was calculated based on the optical densities from the three replicate […]
(§1) are evaluated to have cytotoxic activity.

[2] = tested on: Pseudomonas aeruginosa (ATCC 15442); assay: Antimicrobial broth microdilution; assay type: cell-based; conditions: ATCC15442, P. aeruginosa
Method: (§2) Table S2. The result of antimicrobial tests of compounds 38, 45, 48 and 50.
(§3) Gram (+) strains Gram (-) strains Fungi
(§4) Compound Values (µg/ml) S. aureus B. L. S. E. P. C. subtilis fermentum enterica coli aeruginosa albican
(§5) The antimicrobial activity was determined by broth microdilution method as reported by. Broth dilution testing is one of the common methods used for determination of the MICs and IC50. The compounds are examined for visible bacterial growth as evidenced by turbidity. […]
(§6) S1.5. In vitro antimicrobial activity study of compounds 38, 45, 48 and 50 The Gram-positive bacteria: Bacillus subtilis (ATCC 6633), Lactobacillus fermentum (N4), Staphylococcus aureus (ATCC 13709); Gram -negative bacteria: Escherichia coli (ATCC 25922), Pseudomonas aeruginosa (ATCC 15442), Salmonella enterica; Yeast: Candida albicans (ATCC 10231) were obtained from American Type Culture Collection. The bacterial […]
(§7) Sabourand 2% dextrose broth, were purchased from Merck. […]
(§8) remaining at –80 0 C. Before assay, they were activated by culture medium and, adjusted the concentration to 5x10^5 CFU/mL. 10 μL of each concentration of each test […]
(§9) further incubated at 37 °C within 16-24h. The experiment was triplicated. Positive […]
(§10) medium without bacteria as a negative control. Ampicillin was used as a reference […]
(§11) inhibiting 50% the visible growth of the tested microorganisms. MIC, IC50 values are typically expressed as molar concentration. […]
(§12) treated with sample different concentrations on 96-well plates. Untreated cells represented the controls. […]
(§13) crystals are visible. Remove MTT and add DMSO solution (100 μL). The optical density […]
as §1

[3] = tested on: Bacillus subtilis (ATCC 6633); assay: Antimicrobial broth microdilution; assay type: cell-based; conditions: ATCC6633, B. subtilis
Method: as §2, §3, §4, §5, §6, §7, §8, §9, §10, §11, §12, §13, §1

[4] = tested on: Escherichia coli (ATCC 25922); assay: Antimicrobial broth microdilution; assay type: cell-based; conditions: ATCC25922, E. coli
Method: as §2, §3, §4, §5, §6, §7, §8, §9, §10, §11, §12, §13, §1

[5] = tested on: Candida albicans (ATCC 10231); assay: Antimicrobial broth microdilution; assay type: cell-based; conditions: ATCC10231, C. albican
Method: as §2, §3, §4, §5, §6, §7, §8, §9, §10, §11, §12, §13, §1

[6] = tested on: Staphylococcus aureus (ATCC 13709); assay: Antimicrobial broth microdilution; assay type: cell-based; conditions: ATCC13709, S. aureus
Method: as §2, §3, §4, §5, §6, §7, §8, §9, §10, §11, §12, §13, §1

[7] = tested on: Salmonella enterica; assay: Antimicrobial broth microdilution; assay type: cell-based; conditions: S. enterica
Method: as §2, §3, §4, §5, §6, §7, §8, §9, §10, §11, §12, §13, §1

[8] = tested on: Lactobacillus fermentum (N4); assay: Antimicrobial broth microdilution; assay type: cell-based; conditions: L. fermentum
Method: as §2, §3, §4, §5, §6, §7, §8, §9, §10, §11, §12, §13, §1

[9] = target: T1, yeast α-GLy (α-glucosidase, Sigma G0660) (Saccharomyces cerevisiae, UniProt P53341); assay: biochemical; assay type: biochemical; conditions: yeast α-glucosidase, 37°C, pH 6.8
T1 construct: purchased Sigma G0660
Method: S1. Materials and Methods […]
glucosidase inhibition assay. α-Glucosidase enzyme inhibition assay was carried out in a 96-well microplate. The method’s principle based on the hydrolyzed reaction of 4-nitrophenyl-α-D-glucopiranoside with α-glucosidase enzyme into yellow 4- […]
p-Nitrophenyl α-D-Glucoside a- Gl ucosidas e α-D-Glucose + p- Nitrophenol α-Glucosidase inhibitory activity assay was performed following the modified method of Pistia Brueggeman and Hollingsworth with slight modification. Quinopimaric […]
concentrations of 256, 64, 16, 4 and 1 µg/mL. In a 96-well plate, a reaction mixture containing 20 μL of phosphate buffer (100 mM; pH 6.8), 20 μL of α-glucosidase (0.3 U/mL, Sigma G0660) (this concentration was determined by a series of α-glucosidase […]
linearity between the enzyme concentration and the absorbance of yellow color mixture after reaction which was approximately 5-fold higher than the back ground and at least […]
concentrations was pre-incubated for 10 min at 37°C. Then 20 μL of […] p-nitrophenyl α-D-glucopyranoside (Sigma N1377) was added to the mixture as a substrate. After further incubation at 37°C for 30 min, the reaction was stopped by adding 80 μL of 0.1 […]
solution were prepared using the phosphate buffer […]; pH 6.8. […]
as a positive control and water as negative control. The yellow color produced was quantitated by colorimetric analysis and reading the absorbance at 410 nm. Each experiment was performed in triplicates, along with appropriate blanks. The solvent DMSO was use as negative control to evaluate its effect on α-glucosidase activity. […]
or substrate in negative control. Back ground was determined by volume of buffer as […]
The % inhibition has been obtained using the formula:
% inhibition = {Absorbance (control) –Absorbance (sample)}/Absorbance (control) IC50 value is defined as the concentration of samples inhibiting 50% of α-glucosidase activity under the stated assay conditions. […]

[10] = DPPH radical scavenging assay; conditions: DPPH 0.1 mM in methanol, 25°C, 30 min
Method: DPPH radical scavenging assay as described by Ha. The hydrogen atom donating ability of the plant extractives was determined by the decolorization of methanol solution of 2,2-diphenyl-1-picrylhydrazyl (DPPH). DPPH produces purple color in methanol solution and fades to shades of yellow color in the presence of antioxidants. […]
DPPH (0.1 mM) was diluted in methanol. 200 μL of this solution was added to 1.3 μL of various concentrations of compounds in DMSO (256.0, 64.0, 16.0, and 4.0 μg/mL). The mixture was performed by a 96-well plate at 25 °C in 30 min. Then, absorbance was determined by Epoch™ Microplate Spectrophotometer (at 517 nm). The percentage of DPPH quenching activity was computed by the following formula:
Inhibitory percentage SC (%) = [(Ao - A1)/Ao] × 100. where AO was defined as the absorbance of control reaction, and A1 represented for the absorbance in the presence of test or standard sample. Each experiment was repeated three times. Quercetin was used as a reference compound. […]

[11] = Hep-G2 hepatocellular carcinoma cells (ATCC HB-8065)
[12] = KB epidermoid carcinoma cells (ATCC CCL-17)
[13] = Lu-1 lung adenocarcinoma cells (ATCC HTB-57)
[14] = MCF-7 breast adenocarcinoma cells (ATCC HTB-22)
[15] = IC50 ± SE, α-glucosidase inhibition

T1 sequence (P53341 whole entry): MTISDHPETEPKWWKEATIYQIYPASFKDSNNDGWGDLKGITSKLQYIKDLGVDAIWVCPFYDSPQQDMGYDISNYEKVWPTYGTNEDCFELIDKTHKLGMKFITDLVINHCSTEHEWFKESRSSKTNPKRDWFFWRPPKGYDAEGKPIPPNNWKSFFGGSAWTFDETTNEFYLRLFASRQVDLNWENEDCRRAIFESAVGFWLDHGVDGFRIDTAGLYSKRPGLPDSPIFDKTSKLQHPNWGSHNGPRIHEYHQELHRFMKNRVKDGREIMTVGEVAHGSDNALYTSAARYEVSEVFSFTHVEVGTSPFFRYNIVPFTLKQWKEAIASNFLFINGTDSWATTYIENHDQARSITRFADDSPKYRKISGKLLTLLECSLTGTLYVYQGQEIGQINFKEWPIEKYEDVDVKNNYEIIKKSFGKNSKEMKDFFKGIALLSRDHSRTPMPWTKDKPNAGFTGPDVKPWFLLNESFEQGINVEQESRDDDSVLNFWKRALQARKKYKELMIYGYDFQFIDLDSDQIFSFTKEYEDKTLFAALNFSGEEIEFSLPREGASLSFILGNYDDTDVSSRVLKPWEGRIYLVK

| Compound | IC50 at 72 h [1, 11] [µg/mL] | IC50 at 72 h [1, 12] [µg/mL] | IC50 at 72 h [1, 13] [µg/mL] | IC50 at 72 h [1, 14] [µg/mL] | melting point [°C] | IC50 [2] [µg/mL] | MIC [2] [µg/mL] | IC50 [3] [µg/mL] | MIC [3] [µg/mL] | IC50 [4] [µg/mL] | MIC [4] [µg/mL] | IC50 [5] [µg/mL] | MIC [5] [µg/mL] | IC50 [6] [µg/mL] | MIC [6] [µg/mL] | IC50 [7] [µg/mL] | MIC [7] [µg/mL] | IC50 [8] [µg/mL] | MIC [8] [µg/mL] | IC50 values, antioxidant test (DPPH) [10] [µg/mL] | also measured |
| --- | --- | --- | --- | --- | --- | --- | --- | --- | --- | --- | --- | --- | --- | --- | --- | --- | --- | --- | --- | --- | --- |
| CC(C)C1=CC23CCC4C(C)(C(=O)O)CCCC4(C)C2CC1c1c(OCCC#N)ccc(OCCC#N)c13 (centres unmarked) [Compound 50, 1,4-Bis(2′-cyanoethoxy)-13-isopropyl-7,10a-dimethyl-6,6a,7,8,9,10,10a,10b,11,12-decahydro-5H-4b,12-ethenochrysene-7-carboxylic acid] | 110 ± 2.6 (≈ 213 µM) | 57.3 ± 1.2 (≈ 111 µM) | 69.8 ± 1.5 (≈ 135 µM) | 158 ± 4 (≈ 305 µM) | 157 to 159 | > 256 | > 256 | 11.3 ± 0.77 (≈ 21.8 µM) | 64 (≈ 124 µM) | > 256 | > 256 | > 256 | > 256 | 11 ± 0.83 (≈ 21.3 µM) | 64 (≈ 124 µM) | > 256 | > 256 | 116 ± 6.93 (≈ 224 µM) | > 256 | 105.50 ± 2.2 (≈ 204 µM) | IC50 [9, 15]: 230 ± 10 nM |
| Cc1[nH]c2c3c(c(O)cc2c1CO)[C@H]1C[C@@H]2[C@@]4(C)CCC[C@@](C)(CO)[C@@H]4CC[C@@]32C=C1C(C)C [Compound 38] | 50.8 ± 1.2 (≈ 110 µM) | 39.5 ± 1 (≈ 85.3 µM) | 58.1 ± 1.8 (≈ 125 µM) | 60.4 ± 1.6 (≈ 130 µM) |  | > 256 | > 256 | 102 ± 7.21 (≈ 221 µM) | 256 (≈ 552 µM) | > 256 | > 256 | > 256 | > 256 | 34.3 ± 1.75 (≈ 74 µM) | > 256 | > 256 | > 256 | > 256 | > 256 | 227.76 ± 4.9 (≈ 491 µM) | IC50 ([9]; read-out: IC50 ± SE, α-glucosidase inhibition): 390 ± 30 nM |
| C#CCOC(=O)C1(C)CCCC2(C)C1CCC13C=C(C(C)C)C(CC12)C1=C3C(=O)C=CC1=O (centres unmarked) [Compound 48, Propynyl 13-isopropyl-7,10a-dimethyl-1,4-di oxo-4,5,6,6a,7,8,9,10,10a,10b,11,12-dodecahydro-1H-4b,12-ethenochrysene-7-carboxylate] | 46 ± 0.8 (≈ 103 µM) | 30.5 ± 0.7 (≈ 68.3 µM) | 10.2 ± 0.18 (≈ 22.7 µM) | 39.2 ± 0.78 (≈ 87.9 µM) | 85 to 89 | > 256 | > 256 | 45 ± 2.18 (≈ 101 µM) | 256 (≈ 573 µM) | > 256 | > 256 | > 256 | > 256 | 8.29 ± 0.58 (≈ 18.6 µM) | 64 (≈ 143 µM) | > 256 | > 256 | 43.5 ± 2.52 (≈ 97.5 µM) | 256 (≈ 573 µM) | 177.45 ± 3.5 (≈ 397 µM) | IC50 [9, 15]: 680 ± 45 nM |
